Measured values: US7504400B2, “MTP inhibiting aryl piperydines or piperazines substituted with 5-membered heterocycles” (Janssen Pharmaceutica N.V., priority 2004, dated 2009)

Test system: Secretion of ApoB
Assay: Quantification of the secretion of ApoB in HepG2 cells
Format: cell-based
Conditions: Homo sapiens, HepG2, 24 h, 24 hours of incubation with test compound, immunoprecipitation of apoB from medium, read-out: pIC50 value (=-log IC50 value), secretion of ApoB (converted)
Summary of the method: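 At 70% confluency, HepG2 cells in MEM with 10% FCS received compound or DMSO carrier (0.4% final) for 24 h. Secreted apoB in cleared medium immunoprecipitated with sheep anti-apoB then rabbit anti-sheep antibody (24 h each, 8° C); pellet radioactivity counted by liquid scintillation; IC50 expressed as pIC50.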

| SMILES | IC50 [nM] |
| --- | --- |
| COC(=O)C(c1cccc(Cl)c1)N1CCC(c2ccc(-n3cnn(C(C)C)c3=O)cc2)CC1 (stereo not shown) [Compound 320] | 316 to 3160 |
| COC(=O)C(c1ccc(Cl)cc1)N1CCC(c2ccc(-n3cnn(C(C)C)c3=O)cc2)CC1 (stereo not shown) [Compound 321] | 316 to 3160 |
| COC(=O)C(c1ccc(Cl)cc1Cl)N1CCC(c2ccc(-n3cnn(C(C)C)c3=O)cc2)CC1 (stereo not shown) [Compound 322] | 31.6 to 316 |
| COC(=O)C(c1ccc(Br)cc1)N1CCC(c2ccc(-n3cnn(C(C)C)c3=O)cc2)CC1 (stereo not shown) [Compound 323] | 316 to 3160 |
| COC(=O)C(c1ccc(C)cc1)N1CCC(c2ccc(-n3cnn(C(C)C)c3=O)cc2)CC1 (stereo not shown) [Compound 324] | 316 to 3160 |
| COC(=O)C(c1ccccc1Cl)N1CCN(c2ccc(-n3cnn(C(C)C)c3=O)cc2)CC1 (stereo not shown) [Compound 325] | 31.6 to 316 |
| COC(=O)C(c1cccc(Cl)c1)N1CCN(c2ccc(-n3cnn(C(C)C)c3=O)cc2)CC1 (stereo not shown) [Compound 326] | 316 to 3160 |
| COC(=O)C(c1ccc(Cl)cc1)N1CCN(c2ccc(-n3cnn(C(C)C)c3=O)cc2)CC1 (stereo not shown) [Compound 327] | 316 to 3160 |
| COC(=O)C(c1ccc(Cl)cc1Cl)N1CCN(c2ccc(-n3cnn(C(C)C)c3=O)cc2)CC1 (stereo not shown) [Compound 328] | 31.6 to 316 |
| COC(=O)C(c1ccc(Br)cc1)N1CCN(c2ccc(-n3cnn(C(C)C)c3=O)cc2)CC1 (stereo not shown) [Compound 329] | 316 to 3160 |
| COC(=O)C(c1ccc(C)cc1)N1CCN(c2ccc(-n3cnn(C(C)C)c3=O)cc2)CC1 (stereo not shown) [Compound 330] | 316 to 3160 |
| CCOC(=O)C(c1ccccc1)N1CCN(c2ccc(-n3ccn(C(C)c4cccc(F)c4F)c3=O)cc2)CC1 (stereo not shown) [Compound 332] | 31.6 to 316 |
| CCOC(=O)C(c1ccccc1)N1CCN(c2ccc(-n3ccn(C(C)c4cc(F)ccc4F)c3=O)cc2)CC1 (stereo not shown) [Compound 334] | 31.6 to 316 |
| CCOC(=O)C(c1ccccc1)N1CCN(c2ccc(-n3nc4cccc(C)n4c3=O)cc2)CC1 (stereo not shown) [Compound 347] | 316 to 3160 |
| CCOC(=O)c1cc(NC(=O)C(c2ccccc2)N2CCC(c3ccc(-n4cnn(C(C)C)c4=O)cc3)CC2)ccc1C (stereo not shown) [Compound 349] | < 31.6 |
| CCOC(=O)C(c1ccccc1)N1CCN(c2ccc(-n3cnn(C(C)c4ccccc4F)c3=O)cc2)CC1 (stereo not shown) [Compound 350] | 31.6 to 316 |
| CCOC(=O)CC(NC(=O)C(c1ccccc1)N1CCC(c2ccc(-n3cnn(C(C)C)c3=O)cc2)CC1)c1ccc2c(c1)OCO2 (stereo not shown) [Compound 351] | 316 to 3160 |
| COC(=O)CCc1csc(NC(=O)C(c2ccccc2)N2CCC(c3ccc(-n4cnn(C(C)C)c4=O)cc3)CC2)n1 (stereo not shown) [Compound 352] | 316 to 3160 |
| COC(=O)c1[nH]c2ccc(C)cc2c1NC(=O)C(c1ccccc1)N1CCC(c2ccc(-n3cnn(C(C)C)c3=O)cc2)CC1 (stereo not shown) [Compound 353] | 31.6 to 316 |
| COC(=O)c1ccc2nc(NC(=O)C(c3ccccc3)N3CCC(c4ccc(-n5cnn(C(C)C)c5=O)cc4)CC3)sc2c1 (stereo not shown) [Compound 354] | 316 to 3160 |
| CCOC(=O)c1csc(NC(=O)C(c2ccccc2)N2CCN(c3ccc(-n4cnn(C(C)C)c4=O)cc3)CC2)n1 (stereo not shown) [Compound 357] | 316 to 3160 |
| CCOC(=O)CC(NC(=O)C(c1ccccc1)N1CCN(c2ccc(-n3ccn(C(C)C)c3=O)cc2)CC1)c1ccc2c(c1)OCO2 (stereo not shown) [Compound 358] | 316 to 3160 |
| CCOC(=O)CC(NC(=O)C(c1ccccc1)N1CCN(c2ccc(N3CCN(C(C)C)C3=O)cc2)CC1)c1ccc2c(c1)OCO2 (stereo not shown) [Compound 359] | 316 to 3160 |
| CCOC(=O)c1cc(NC(=O)C(c2ccccc2)C2CCN(c3ccc(-n4cnn(C(C)c5ccccc5)c4=O)cc3)CC2)ccc1C (stereo not shown) [Compound 369] | 31.6 to 316 |
| CCOC(=O)c1cc(NC(=O)C(c2ccccc2)C2CCN(c3ccc(-n4cnn(C(C)C)c4=O)cc3)CC2)ccc1C (stereo not shown) [Compound 370] | 31.6 to 316 |

Continued, values first:

| IC50 [nM] | SMILES |
| --- | --- |
| 31.6 to 316 | CCOC(=O)c1cc(NC(=O)CC2CCN(c3ccc(-n4cnn(C(C)c5ccccc5)c4=O)cc3)CC2)ccc1C (stereo not shown) [Compound 371] |
| 316 to 3160 | CCOC(=O)c1cc(NC(=O)CC2CCN(c3ccc(-n4cnn(C(C)C)c4=O)cc3)CC2)ccc1C [Compound 372] |
| 316 to 3160 | CCOC(=O)c1cc(NC(=O)C(Cc2ccccc2)C2CCN(c3ccc(-n4cnn(C(C)c5ccccc5)c4=O)cc3)CC2)ccc1C (stereo not shown) [Compound 373] |
| 316 to 3160 | CCOC(=O)c1cc(NC(=O)C(Cc2ccccc2)C2CCN(c3ccc(-n4cnn(C(C)C)c4=O)cc3)CC2)ccc1C (stereo not shown) [Compound 374] |
| 31.6 to 316 | CCOC(=O)c1ccc(CNC(=O)C(c2ccccc2)C2CCN(c3ccc(-n4cnn(C(C)c5ccccc5)c4=O)cc3)CC2)cc1C (stereo not shown) [Compound 375] |
| 31.6 to 316 | CCOC(=O)c1ccc(CNC(=O)C(c2ccccc2)C2CCN(c3ccc(-n4cnn(C(C)C)c4=O)cc3)CC2)cc1C (stereo not shown) [Compound 376] |
| 31.6 to 316 | CCOC(=O)c1ccc(CNC(=O)CC2CCN(c3ccc(-n4cnn(C(C)c5ccccc5)c4=O)cc3)CC2)cc1C (stereo not shown) [Compound 377] |
| 31.6 to 316 | CCOC(=O)c1ccc(CNC(=O)CC2CCN(c3ccc(-n4cnn(C(C)C)c4=O)cc3)CC2)cc1C [Compound 378] |
| 316 to 3160 | CCOC(=O)c1ccc(CNC(=O)C(Cc2ccccc2)C2CCN(c3ccc(-n4cnn(C(C)c5ccccc5)c4=O)cc3)CC2)cc1C (stereo not shown) [Compound 379] |
| 316 to 3160 | CCOC(=O)c1ccc(CNC(=O)C(Cc2ccccc2)C2CCN(c3ccc(-n4cnn(C(C)C)c4=O)cc3)CC2)cc1C (stereo not shown) [Compound 380] |
| < 31.6 | CCOC(=O)c1cc(CNC(=O)C(c2ccccc2)C2CCN(c3ccc(-n4cnn(C(C)c5ccccc5)c4=O)cc3)CC2)ccc1C (stereo not shown) [Compound 381] |
| 31.6 to 316 | CCOC(=O)c1cc(CNC(=O)CC2CCN(c3ccc(-n4cnn(C(C)C)c4=O)cc3)CC2)ccc1C [Compound 382] |
| 316 to 3160 | CCOC(=O)c1cc(CNC(=O)C(Cc2ccccc2)C2CCN(c3ccc(-n4cnn(C(C)c5ccccc5)c4=O)cc3)CC2)ccc1C (stereo not shown) [Compound 383] |
| 316 to 3160 | CCOC(=O)c1cc(CNC(=O)C(Cc2ccccc2)C2CCN(c3ccc(-n4cnn(C(C)C)c4=O)cc3)CC2)ccc1C (stereo not shown) [Compound 384] |
| 316 to 3160 | CCOC(=O)CC1CCN(c2ccc(-n3cnn(C(C)C)c3=O)cc2)CC1 [Compound 385] |
| 316 to 3160 | CCOC(=O)CC1CCN(c2ccc(-n3cnn(C(C)c4ccccc4)c3=O)cc2)CC1 (stereo not shown) [Compound 386] |
| 316 to 3160 | CCOC(=O)[C@@H](C)NC(=O)CC1CCN(c2ccc(-n3cnn(C(C)c4ccccc4)c3=O)cc2)CC1 (stereo partly shown) [Compound 391] |
| 316 to 3160 | CCOC(=O)[C@@H](NC(=O)CC1CCN(c2ccc(-n3cnn(C(C)c4ccccc4)c3=O)cc2)CC1)C(C)C (stereo partly shown) [Compound 392] |
| 31.6 to 316 | CCOC(=O)[C@H](NC(=O)CC1CCN(c2ccc(-n3cnn(C(C)c4ccccc4)c3=O)cc2)CC1)C(C)C (stereo partly shown) [Compound 393] |
| 31.6 to 316 | CCOC(=O)[C@H](NC(=O)CC1CCN(c2ccc(-n3cnn(C(C)c4ccccc4)c3=O)cc2)CC1)c1ccccc1 (stereo partly shown) [Compound 394] |
| 316 to 3160 | CCOC(=O)[C@@H](NC(=O)CC1CCN(c2ccc(-n3cnn(C(C)c4ccccc4)c3=O)cc2)CC1)c1ccccc1 (stereo partly shown) [Compound 395] |
| 316 to 3160 | CCOC(=O)[C@@H](Cc1ccccc1)NC(=O)CC1CCN(c2ccc(-n3cnn(C(C)c4ccccc4)c3=O)cc2)CC1 (stereo partly shown) [Compound 396] |
| 316 to 3160 | CCOC(=O)CC[C@H](NC(=O)CC1CCN(c2ccc(-n3cnn(C(C)c4ccccc4)c3=O)cc2)CC1)C(=O)OCC (stereo partly shown) [Compound 397] |
| 316 to 3160 | CCOC(=O)[C@H](CC(C)C)NC(=O)CC1CCN(c2ccc(-n3cnn(C(C)c4ccccc4)c3=O)cc2)CC1 (stereo partly shown) [Compound 398] |
